Assay results as given in ChEMBL document CHEMBL1201862, “PubChem BioAssay data set” (2004).
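Cultured in 96-well plates, cells were exposed to test compound for 48 hours across five concentrations. Abbreviation: GI50, concentration required for 50% inhibition of growth.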 The source made the active and inactive calls. Cut-off read from the data, not from the text of the source: active = GI50 up to about 1.1 µM and inactive = higher.

Key:
Assay in all cases: DTP human tumour cell line panel, 48 h
EKVX = system: EKVX
HCC 2998 = system: HCC 2998
HCT-116 = system: HCT-116
HT-29 = system: HT-29
K562 = system: K562
KM-20L2 = system: KM-20L2
LOX IMVI = system: LOX IMVI
M14 = system: M14
NCI-H522 = system: NCI-H522
SF-295 = system: SF-295
SF-539 = system: SF-539
SW-620 = system: SW-620
UO-31 = system: UO-31
A498 = system: A498
BT-549 = system: BT-549
DU-145 = system: DU-145
Hs-578T = system: Hs-578T
MCF7 = system: MCF7
SN12C = system: SN12C
SR = system: SR

| SMILES | GI50 (EKVX) | GI50 (HCC 2998) | GI50 (HCT-116) | GI50 (HT-29) | GI50 (K562) | GI50 (KM-20L2) | GI50 (LOX IMVI) | GI50 (M14) | GI50 (NCI-H522) | GI50 (SF-295) | GI50 (SF-539) | GI50 (SW-620) | GI50 (UO-31) | GI50 (A498) | GI50 (BT-549) | GI50 (DU-145) | GI50 (Hs-578T) | GI50 (MCF7) | GI50 (SN12C) | GI50 (SR) |
| --- | --- | --- | --- | --- | --- | --- | --- | --- | --- | --- | --- | --- | --- | --- | --- | --- | --- | --- | --- | --- |
| COC(=O)N/N=C(\C)CC(=O)Nc1cccc([N+](=O)[O-])c1 | > 100 µM (inactive) | > 100 µM (inactive) | > 100 µM (inactive) | > 100 µM (inactive) | > 100 µM (inactive) | > 100 µM (inactive) | > 100 µM (inactive) | > 100 µM (inactive) | > 100 µM (inactive) | > 100 µM (inactive) | > 100 µM (inactive) | > 100 µM (inactive) | > 100 µM (inactive) | – | – | – | – | – | – | – |
| COc1cc2cc(C(=O)N3C[C@H](CCl)c4c3cc(N)c3ccccc43)[nH]c2c(OC)c1OC | 0.0103 µM (active) | 1.93 µM (inactive) | 0.00695 µM (active) | 0.00296 µM (active) | 2.39 µM (inactive) | – | 0.519 µM (active) | 0.502 µM (active) | 0.001 µM (active) | 2.61 µM (inactive) | 0.0284 µM (active) | 0.0233 µM (active) | 0.005 µM (active) | 0.0075 µM (active) | 1.38 µM (inactive) | 0.409 µM (active) | 0.0127 µM (active) | 0.0023 µM (active) | 0.592 µM (active) | 8.28 µM (inactive) |
| CC1=N/C(=C\c2cccc([N+](=O)[O-])c2)C(=O)O1 | > 100 µM (inactive) | > 100 µM (inactive) | > 100 µM (inactive) | > 100 µM (inactive) | > 100 µM (inactive) | > 100 µM (inactive) | – | > 100 µM (inactive) | > 100 µM (inactive) | > 100 µM (inactive) | > 100 µM (inactive) | > 100 µM (inactive) | > 100 µM (inactive) | > 100 µM (inactive) | – | – | – | – | > 100 µM (inactive) | – |
| O=C(O)c1cc(/N=C/c2ccccc2O)cc(C(=O)O)c1 | > 100 µM (inactive) | > 100 µM (inactive) | > 100 µM (inactive) | > 100 µM (inactive) | > 100 µM (inactive) | – | > 100 µM (inactive) | > 100 µM (inactive) | > 100 µM (inactive) | > 100 µM (inactive) | > 100 µM (inactive) | > 100 µM (inactive) | > 100 µM (inactive) | > 100 µM (inactive) | > 100 µM (inactive) | > 100 µM (inactive) | > 100 µM (inactive) | > 100 µM (inactive) | > 100 µM (inactive) | > 100 µM (inactive) |
| COC(=O)C(CC(=O)Nc1ccc(C)cc1)C(=O)C(=O)Nc1c(C(C)C)cccc1C(C)C (configuration not stated) | > 100 µM (inactive) | > 100 µM (inactive) | > 100 µM (inactive) | – | > 100 µM (inactive) | > 100 µM (inactive) | > 100 µM (inactive) | > 100 µM (inactive) | > 100 µM (inactive) | – | > 100 µM (inactive) | > 100 µM (inactive) | > 100 µM (inactive) | > 100 µM (inactive) | – | – | – | – | > 100 µM (inactive) | – |
| c1ccc(COC[C@H]2C3OCC([C@H](OCc4ccccc4)[C@H]3OCc3ccccc3)N2Cc2ccccc2)cc1 (some centres not stated) | > 46.7 µM (inactive) | > 53 µM (inactive) | 23.5 µM (inactive) | 46.6 µM (inactive) | 12.4 µM (inactive) | – | > 50.6 µM (inactive) | > 54 µM (inactive) | 13.9 µM (inactive) | > 51.2 µM (inactive) | > 59 µM (inactive) | > 57 µM (inactive) | > 46.1 µM (inactive) | 33.7 µM (inactive) | > 53.3 µM (inactive) | > 48.2 µM (inactive) | > 49.1 µM (inactive) | > 56 µM (inactive) | > 49 µM (inactive) | 26.8 µM (inactive) |
| COc1ccc(CCn2c(=O)c3ccccc3n(C)c2=O)cc1 | 60.4 µM (inactive) | 21 µM (inactive) | 38.7 µM (inactive) | 23.3 µM (inactive) | 4.21 µM (inactive) | 63.4 µM (inactive) | – | 26.1 µM (inactive) | 24.2 µM (inactive) | 30.2 µM (inactive) | 41.6 µM (inactive) | 15.9 µM (inactive) | 40.4 µM (inactive) | 62.2 µM (inactive) | – | – | – | – | 80.7 µM (inactive) | – |
| O=C(/C=C/c1ccccc1)CCN1CCCCC1 | > 100 µM (inactive) | > 100 µM (inactive) | 17.4 µM (inactive) | 19.7 µM (inactive) | 40.1 µM (inactive) | – | 17.5 µM (inactive) | 17.5 µM (inactive) | 21.4 µM (inactive) | 99.5 µM (inactive) | 17.8 µM (inactive) | 18.8 µM (inactive) | 34.9 µM (inactive) | 39.2 µM (inactive) | 47.1 µM (inactive) | > 100 µM (inactive) | 30.9 µM (inactive) | 27.4 µM (inactive) | 20.3 µM (inactive) | 25.9 µM (inactive) |
| NC(=S)N/N=C1\C(=O)N(c2cccc([N+](=O)[O-])c2)C(=O)C1C(=O)Nc1cccc([N+](=O)[O-])c1 (configuration not stated) | > 100 µM (inactive) | > 100 µM (inactive) | > 100 µM (inactive) | > 100 µM (inactive) | > 100 µM (inactive) | > 100 µM (inactive) | > 100 µM (inactive) | > 100 µM (inactive) | > 100 µM (inactive) | > 100 µM (inactive) | > 100 µM (inactive) | > 100 µM (inactive) | > 100 µM (inactive) | > 100 µM (inactive) | – | – | – | – | > 100 µM (inactive) | – |
| O=c1c2cnccc2cc2c3ccccc3ccn12 | 3.63 µM (inactive) | 53.7 µM (inactive) | 31.8 µM (inactive) | 28.2 µM (inactive) | 37.9 µM (inactive) | – | 18.9 µM (inactive) | > 100 µM (inactive) | 45.6 µM (inactive) | > 100 µM (inactive) | > 100 µM (inactive) | 49.8 µM (inactive) | 23.1 µM (inactive) | > 100 µM (inactive) | 65.6 µM (inactive) | > 100 µM (inactive) | 71.8 µM (inactive) | 13.2 µM (inactive) | 61.2 µM (inactive) | 2.03 µM (inactive) |
| Cn1cccc1-c1ccc(-c2ccc(CO)[se]2)[se]1 | 61.1 µM (inactive) | 2.02 µM (inactive) | 6.34 µM (inactive) | 12.6 µM (inactive) | 0.986 µM (active) | – | 19.1 µM (inactive) | 16.1 µM (inactive) | 10.2 µM (inactive) | 10.7 µM (inactive) | 11.5 µM (inactive) | 2.15 µM (inactive) | 35.7 µM (inactive) | 1.77 µM (inactive) | 20.2 µM (inactive) | 17.5 µM (inactive) | 22.7 µM (inactive) | 0.906 µM (active) | 68.9 µM (inactive) | 17.1 µM (inactive) |
| COc1cc(/C=C2/CCCc3ccccc3C2=O)cc(OC)c1OC | 17.6 µM (inactive) | 22.5 µM (inactive) | 6.65 µM (inactive) | 17.5 µM (inactive) | 2.65 µM (inactive) | – | 15.4 µM (inactive) | 18.7 µM (inactive) | 11.3 µM (inactive) | 18.4 µM (inactive) | 18.6 µM (inactive) | 22.4 µM (inactive) | 14.6 µM (inactive) | 7.89 µM (inactive) | 13.8 µM (inactive) | 11.9 µM (inactive) | 18.2 µM (inactive) | 9.79 µM (inactive) | 15.1 µM (inactive) | 2.74 µM (inactive) |
| [O-][S+]1c2ccccc2N=C(c2ccc3ccccc3c2)CC1c1ccccc1F (configuration not stated) | > 100 µM (inactive) | > 100 µM (inactive) | – | > 100 µM (inactive) | 78.2 µM (inactive) | > 100 µM (inactive) | > 100 µM (inactive) | > 100 µM (inactive) | 72.3 µM (inactive) | > 100 µM (inactive) | > 100 µM (inactive) | > 100 µM (inactive) | > 100 µM (inactive) | 22.3 µM (inactive) | – | – | – | – | > 100 µM (inactive) | – |
| CC(C)N(C(=O)C12C3(C(=O)C(C)(C)C)C4C5(C#N)C3C1(C(=O)C(C)(C)C)C5C42C(=O)C(C)(C)C)C(C)C (configuration not stated) | > 100 µM (inactive) | > 100 µM (inactive) | > 100 µM (inactive) | > 100 µM (inactive) | > 100 µM (inactive) | – | > 100 µM (inactive) | > 100 µM (inactive) | > 100 µM (inactive) | > 100 µM (inactive) | > 100 µM (inactive) | > 100 µM (inactive) | > 100 µM (inactive) | > 100 µM (inactive) | > 100 µM (inactive) | > 100 µM (inactive) | > 100 µM (inactive) | > 100 µM (inactive) | > 100 µM (inactive) | > 100 µM (inactive) |
| N#CC(CCN1CCC(Nc2ccccc2)(c2nnnn2C2CCCCC2)CC1)(c1ccccc1)c1ccccc1 | > 100 µM (inactive) | > 100 µM (inactive) | > 100 µM (inactive) | > 100 µM (inactive) | > 100 µM (inactive) | – | > 100 µM (inactive) | > 100 µM (inactive) | > 100 µM (inactive) | > 100 µM (inactive) | > 100 µM (inactive) | > 100 µM (inactive) | > 100 µM (inactive) | > 100 µM (inactive) | > 100 µM (inactive) | 81.3 µM (inactive) | > 100 µM (inactive) | 58.2 µM (inactive) | > 100 µM (inactive) | > 100 µM (inactive) |
| CC1OC(OC2C(OC(=O)[C@]34CCC(C)(C)CC3C3=CCC5[C@@]6(C)C[C@H](O)[C@H](OC7OC(COC8OC(CO)C(O)C(O)C8O)C(O)C(O)C7O)[C@@](C)(C(=O)O)C6CC[C@@]5(C)C3(C)CC4)OCC(O)C2O)C(O)C(O)C1OC1OCC(O)C(O)C1O (some centres not stated) | > 100 µM (inactive) | > 100 µM (inactive) | – | > 100 µM (inactive) | > 100 µM (inactive) | > 100 µM (inactive) | > 100 µM (inactive) | – | > 100 µM (inactive) | > 100 µM (inactive) | > 100 µM (inactive) | > 100 µM (inactive) | > 100 µM (inactive) | > 100 µM (inactive) | – | – | – | – | > 100 µM (inactive) | – |
